We go through 1 compound from ChEMBL document CHEMBL5154904, “Discovery and Structural Basis of the Selectivity of Potent Cyclic Peptide Inhibitors of MAGE-A4” (J Med Chem, 2022).

Each structure is given as a SMILES string. Residue numbers refer to the chain shown, from its start. Calls of active or inactive are those of the source. The rule behind the calls is not given here. Positions of bridges follow the written chain, without caps; N, C: chain ends. Residues, ends and D or L forms follow the SMILES beside them.

For one test, the species on record is Homo sapiens. Put plainly: Inhibition of Eu-W1024 streptavidin-labeled 6 xHis-tagged MAGEA4-MH domain I205A mutant (unknown origin) expressed in Escherichia coli BL21-(DE3) interaction with Ulight-labeled GST-tagged RAD18 (unknown origin) (267 to 402 residues) at 1 uM by LANCE TR-FRET assay.
Test [1] deals with T1, Melanoma-associated antigen 4 (Homo sapiens) (UniProt P43358).
T1 sequence (whole entry): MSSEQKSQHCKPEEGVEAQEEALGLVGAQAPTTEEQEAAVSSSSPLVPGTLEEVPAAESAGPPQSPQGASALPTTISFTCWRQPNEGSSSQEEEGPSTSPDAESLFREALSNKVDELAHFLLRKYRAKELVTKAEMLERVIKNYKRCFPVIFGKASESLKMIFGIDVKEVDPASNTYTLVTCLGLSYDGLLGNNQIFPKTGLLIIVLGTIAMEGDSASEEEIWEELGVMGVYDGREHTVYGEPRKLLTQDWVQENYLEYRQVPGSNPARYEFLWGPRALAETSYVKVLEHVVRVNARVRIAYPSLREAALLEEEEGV
The test can be described thus: Binding affinity to recombinant N-terminal His-tagged MAGEA4-MH domain (unknown origin) expressed in Escherichia coli BL21-(DE3) assessed as protection in trypsin-induced MAGEA4 protein degradation incubated for 1 hr by proteolysis based SDS-PAGE analysis.

Test [2] concerns T2, Melanoma-associated antigen 4 (Homo sapiens), P43358 [V228A].
T2 sequence (whole entry): T1 sequence (whole entry) with V228A
The test can be described thus: Binding affinity to recombinant N-terminal His-tagged MAGEA4-MH domain V228A mutant (unknown origin) expressed in Escherichia coli BL21-(DE3) assessed as increase in thermal stability by SYPRO orange dye based differential scanning fluorimetry. As to conditions: dose <= 10.0 µM. (In general: Differential scanning fluorimetry follows unfolding on heating by fluorescence.)

The next test concerns NCI-H1299. The test can be described thus: Inhibition of MAGEA4 in human NCI-H1299 cell lysate interaction with HA-tagged RAD18 (unknown origin) at 20 nM incubated for overnight by co-immunoprecipitation pull down assay. The format is subcellular.
A short description of test [3]: Inhibition of Eu-W1024 streptavidin-labeled 6 xHis-tagged MAGEA4-MH domain (unknown origin) expressed in Escherichia coli BL21-(DE3)/GST-tagged RAD18 (unknown origin) (267 to 402 residues) interaction using Ulight-anti-GST antibody incubated for 30 to 60 mins by LANCE TR-FRET assay. On the set-up: species or system Homo sapiens.
Test [4] concerns T3, Melanoma-associated antigen 4 (Homo sapiens), P43358 [M161A].
T3 sequence (whole entry): T1 sequence (whole entry) with M161A
The test can be described thus: Binding affinity to recombinant N-terminal His-tagged MAGEA4-MH domain M161A mutant (unknown origin) expressed in Escherichia coli BL21-(DE3) assessed as increase in thermal stability by SYPRO orange dye based differential scanning fluorimetry. The settings on record: dose 10.0 µM.

Test [5] relates to T4, Melanoma-associated antigen 4 (Homo sapiens), P43358 [V294A].
T4 sequence (whole entry): T1 sequence (whole entry) with V294A
The test can be described thus: Binding affinity to recombinant N-terminal His-tagged MAGEA4-MH domain V294A mutant (unknown origin) expressed in Escherichia coli BL21-(DE3) assessed as increase in thermal stability by SYPRO orange dye based differential scanning fluorimetry. As to conditions: dose <= 10.0 µM.

Test [6] has as its target T5, Melanoma-associated antigen 4 (Homo sapiens, UniProt P43358).
T5 sequence (P43358 whole entry): T1 sequence (whole entry)
Put plainly: Binding affinity to MAGEA4 (unknown origin) expressed in Escherichia coli BL21-(DE3) by isothermal titration calorimetry. On the technique in general: Isothermal titration calorimetry measures the heat released or taken up as one component is titrated into another.

Test [7] relates to T6, Melanoma-associated antigen 4 (Homo sapiens), P43358 [R297A].
T6 sequence (whole entry): T1 sequence (whole entry) with R297A
The test can be described thus: Binding affinity to recombinant N-terminal His-tagged MAGEA4-MH domain R297A mutant (unknown origin) expressed in Escherichia coli BL21-(DE3) assessed as increase in thermal stability by SYPRO orange dye based differential scanning fluorimetry. The settings on record: dose <= 10.0 µM.

For test [8], the system named is T7, Melanoma-associated antigen 4 (Homo sapiens), P43358 [M229A].
T7 sequence (whole entry): T1 sequence (whole entry) with M229A
Put plainly: Binding affinity to recombinant N-terminal His-tagged MAGEA4-MH domain M229A mutant (unknown origin) expressed in Escherichia coli BL21-(DE3) assessed as increase in thermal stability by SYPRO orange dye based differential scanning fluorimetry. As to conditions: dose <= 10.0 µM.

As usually defined, the IC50 is the concentration at which inhibition is half-maximal. As usually defined, the Kd is the free concentration of one partner at which half of the binding sites on the other are occupied at equilibrium, for simple one-to-one binding.

For `CC[C@H](C)[C@@H]1NC(=O)[C@H](Cc2ccc(O)cc2)NC(=O)CSC[C@@H](C(N)=O)NC(=O)[C@H](CC(N)=O)NC(=O)[C@H](Cc2cnc[nH]2)NC(=O)[C@H](Cc2ccc(O)cc2)NC(=O)[C@H](CC(=O)O)NC(=O)[C@H](Cc2ccc(O)cc2)NC(=O)[C@H](CC(C)C)NC(=O)[C@H](CCCNC(=N)N)NC1=O` ({CH2CO}-YIRLYDYHNC-NH2; thioether N-10), the inhibition entry in the test listed under Homo sapiens and in the test with NCI-H1299 was “Active” each time. The outcome in test [1] was Active. Further, the Tm in test [2], in [4], in test [5], in test [7] and in test [8] was less than 3.5 °C throughout. This compound had an IC50 in [3] of 3.65 nM. Also, in test [6], binding was put at a Kd of 36.8 nM.
